The values that follow come from ChEMBL document CHEMBL3612052, “Identification of amino acid appended acridines as potential leads to anti-cancer drugs” (Bioorg Med Chem Lett, 2015).

For assay [1], the system named is C6. Kind of assay: Induction of senescence in rat C6 cells assessed as translocation of mortalin from perinuclear region to pancytoplasmic region by DAPI staining-based confocal microscopic analysis. In kind it is functional, cell-based.
The test system of assay [2] is C6. Kind of assay: Antiproliferative activity against rat C6 cells at 10 uM by phase contrast microscopic analysis relative to control. The assay is classed as functional, cell-based.
For assay [3], the system named is C6. Kind of assay: Downregulation of GFAP expression in rat C6 cells by DAPI staining-based confocal microscopic analysis. The assay is classed as functional, cell-based.
Assay [4] has as its system C6. Kind of assay: Antiproliferative activity against rat C6 cells assessed as appearance of small cell body at 20 uM by alpha-tubulin immunostaining-based phase contrast microscopic analysis. The assay is classed as functional.
Assay [5] relates to C6. Kind of assay: Cell cycle arrest in rat C6 cells assessed as accumulation at G0/G1 phase at 10 uM after 36 hrs by propidium iodide staining-based flow cytometric analysis. The assay is classed as functional. Background: Flow cytometry measures light scatter and fluorescence of single cells or particles in a stream.
Assay [6] deals with C6. Kind of assay: Cell cycle arrest in rat C6 cells assessed as decrease in cell number in G2/M phase at 10 uM after 36 hrs by propidium iodide staining-based flow cytometric analysis relative to control. In kind it is functional.
For assay [7], the system named is C6. Kind of assay: Antiproliferative activity against rat C6 cells assessed as reduction in cell number at 10 to 20 uM by DAPI staining-based confocal microscopic analysis. The assay is classed as functional.
Assay [8] deals with C6. Kind of assay: Induction of senescence in rat C6 cells assessed as upregulation of HSP70 expression at 10 ug/ml by DAPI staining-based confocal microscopic analysis. The assay is classed as functional, cell-based.
The test system of assay [9] is C6. Kind of assay: Induction of senescence in rat C6 cells assessed as upregulation of mortalin expression in nucleus by DAPI staining-based confocal microscopic analysis. The assay is classed as functional, cell-based.
Assay [10] relates to C6. Kind of assay: Antiproliferative activity against rat C6 cells assessed as appearance of differentiated morphology with long stellate process at 20 uM by alpha-tubulin immunostaining-based phase contrast microscopic analysis. In kind it is functional, cell-based.
The subject of assay [11] is C6. Kind of assay: Antiproliferative activity against rat C6 cells assessed as appearance of small cell body at 10 to 20 uM by DAPI staining-based confocal microscopic analysis. The assay is classed as functional.
The subject of assay [12] is C6. Kind of assay: Cell cycle arrest in rat C6 cells assessed as accumulation at G0/G1 phase at 10 uM after 36 hrs by propidium iodide staining-based flow cytometric analysis relative to control. The assay is classed as functional.
Assay [13] has as its system C6. Kind of assay: Cell cycle arrest in rat C6 cells assessed as decrease in cell number in S phase at 10 uM after 36 hrs by propidium iodide staining-based flow cytometric analysis relative to control. The assay is classed as functional.
For assay [14], the system named is C6. Kind of assay: Antiproliferative activity against rat C6 cells after 72 hrs by MTT assay. Particulars: C6, 72 h. In kind it is functional, cell-based.
For assay [15], the system named is C6. Kind of assay: Antiproliferative activity against rat C6 cells assessed as reduction in cell number at 20 uM by alpha-tubulin immunostaining-based phase contrast microscopic analysis. In kind it is functional.
Assay [16] relates to C6. Kind of assay: Antiproliferative activity against rat C6 cells assessed as appearance of differentiated morphology with long stellate process at 10 to 20 uM by DAPI staining-based confocal microscopic analysis. The assay is classed as functional, cell-based.

SMILES strings stand for the structures. The source made the active and inactive calls. The calls are words filed in the database; no cut-off is given here.

In the case of `O=C(O)CNC(=O)[C@@H]1CCCN1C(=O)[C@H](Cc1ccc(O)cc1)NC(=O)c1cccc2c(=O)c3ccccc3[nH]c12`, the result in the assay with C6 [1], with C6 [2], in the assay with C6 [3], with C6 [4], with C6 [5] and in the assay on C6 [6] was Active. Also, the result in the assay with C6 [7], in the assay on C6 [8], in the assay with C6 [9], in the assay on C6 [10], with C6 [11] and in the assay on C6 [12] was Active. In addition, the outcome in the assay with C6 [13], with C6 [15] and with C6 [16] was Active. Besides, in the assay with C6 [14], inhibition was half-maximal at 14 µM (IC50).

As to `COC(=O)CNC(=O)[C@H](Cc1ccc(O)cc1)NC(=O)c1cccc2c(=O)c3ccccc3[nH]c12`, the outcome with C6 [1], in the assay with C6 [2], with C6 [3], with C6 [4], with C6 [5] and in the assay with C6 [6] was Active. For the same compound, the result in the assay on C6 [7], in the assay on C6 [8], in the assay with C6 [9], in the assay on C6 [10], in the assay on C6 [11] and with C6 [12] was Active. Also, the result in the assay with C6 [13], with C6 [15] and with C6 [16] was Active. In addition, the IC50 (commonly the concentration that gives 50% inhibition) in the assay on C6 [14] stood at 14 µM.

For `COC(=O)[C@H](Cc1ccc(O)cc1)NC(=O)c1cccc2c(=O)c3ccccc3[nH]c12`, the result in the assay with C6 [5] was Active. In addition, in the assay with C6 [14], the IC50 was 14 µM.

As for `O=C(N[C@@H](Cc1ccc(O)cc1)C(=O)NCC(=O)N1CCC[C@H]1C(=O)O)c1cccc2c(=O)c3ccccc3[nH]c12`, the result with C6 [1], in the assay on C6 [2], in the assay on C6 [3], with C6 [4], with C6 [5] and in the assay on C6 [6] was Active. The result in the assay on C6 [7], in the assay with C6 [8], in the assay with C6 [9], in the assay on C6 [10], with C6 [11] and with C6 [12] was Active. Besides, the outcome with C6 [13], in the assay with C6 [15] and with C6 [16] was Active. The compound also registered an IC50 in the assay on C6 [14] of 14 µM.

`O=C(N[C@@H](Cc1ccc(O)cc1)C(=O)O)c1cccc2c(=O)c3ccccc3[nH]c12`: the result with C6 [5] was Active. The same compound gave an IC50 in the assay with C6 [14] of 14 µM.

As to `COC(=O)[C@@H](NC(=O)c1cccc2c(=O)c3ccccc3[nH]c12)C(C)C`, the result with C6 [5] was Active. In the assay with C6 [14], the IC50 is 14 µM.
